In the supplement of paper PMC10307832:

Experiments:
Assay in all cases: relative viability (nuclei count vs DMSO), 5 days (fraction); higher = more cells survive
[1] = compound: CC[C@H](C)N1C=C(C2=C(C=C(C=C21)C3=CN=C(C=C3)N4CCNCC4)C(=O)NCC5=C(C=C(NC5=O)C)C)C [GSK126] + CS(=O)(=O)N1CCN(Cc2cc3nc(-c4cccc5[nH]ncc45)nc(N4CCOCC4)c3s2)CC1 [Pictilisib] (partner 1 µM)
How it was run: (§1)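 Lung cancer cell lines were pin-tool dosed in 1536-well plates on the day after seeding, with either a lone drug or a fixed anchor-drug dose plus five library-drug doses (not always all listed) in √10 steps. Nuclei were counted on 4× images after 5 days. Relative viability is the ratio of treated-well to vehicle-well nuclei counts, with each value a median of duplicate plates.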

[2] = compound: CC[C@H](C)N1C=C(C2=C(C=C(C=C21)C3=CN=C(C=C3)N4CCNCC4)C(=O)NCC5=C(C=C(NC5=O)C)C)C [GSK126] + C[C@]1(O)C[C@@H](c2nc(-c3ccc4ccc(-c5ccccc5)nc4c3)c3c(N)nccn32)C1 [Linsitinib] (partner 1 µM)
How it was run: as §1

[3] = compound: NS(=O)(=O)OC[C@@H]1C[C@@H](n2ccc3c(N[C@H]4CCc5ccccc54)ncnc32)C[C@@H]1O [MLN4924] + CC(=O)c1c(C)c2cnc(Nc3ccc(N4CCNCC4)cn3)nc2n(C2CCCC2)c1=O [Palbociclib] (partner 0.5 µM)
How it was run: as §1

[4] = compound: NS(=O)(=O)OC[C@@H]1C[C@@H](n2ccc3c(N[C@H]4CCc5ccccc54)ncnc32)C[C@@H]1O [MLN4924] + Nc1nc2[nH]cc(CCc3ccc(C(=O)N[C@@H](CCC(=O)O)C(=O)O)cc3)c2c(=O)[nH]1 [Pemetrexed] (partner 0.2 µM)
How it was run: as §1

Row | Cell Line | relative viability ([1]; first compound 0.08 µM) | relative viability ([1]; first compound 0.253 µM) | relative viability ([1]; first compound 0.8 µM) | relative viability ([1]; first compound 2.53 µM) | relative viability ([1]; first compound 8 µM) | relative viability ([2]; first compound 0.08 µM) | relative viability ([2]; first compound 0.253 µM) | relative viability ([2]; first compound 0.8 µM) | relative viability ([2]; first compound 2.53 µM) | relative viability ([2]; first compound 8 µM) | relative viability ([3]; first compound 0.04 µM) | relative viability ([3]; first compound 0.1265 µM) | relative viability ([3]; first compound 0.4 µM) | relative viability ([3]; first compound 1.265 µM) | relative viability ([3]; first compound 4 µM) | relative viability ([4]; first compound 0.04 µM) | relative viability ([4]; first compound 0.1265 µM) | relative viability ([4]; first compound 0.4 µM) | relative viability ([4]; first compound 1.265 µM) | relative viability ([4]; first compound 4 µM)
1 | PC-14 | 0.684 | 0.667 | 0.59 | 0.693 | 0.656 | 0.944 | 0.994 | 0.982 | 0.968 | 0.954 | 0.463 | 0.416 | 0.138 | 0.0525 | 0.0516 | 0.157 | 0.128 | 0.0989 | 0.0654 | 0.0612
2 | HCC-15 | 0.767 | 0.709 | 0.698 | 0.673 | 0.676 | 0.927 | 0.683 | 0.891 | 0.957 | 0.827 | 0.477 | 0.172 | 0.196 | 0.0952 | 0.101 | 0.205 | 0.158 | 0.0806 | 0.0787 | 0.0939
3 | NCI-H2347 | 0.602 | 0.661 | 0.567 | 0.511 | 0.616 | 1.04 | 0.943 | 0.916 | 0.885 | 0.965 | 0.426 | 0.46 | 0.399 | 0.312 | 0.339 | 0.376 | 0.438 | 0.369 | 0.396 | 0.36
4 | LOU-NH91 | 0.519 | 0.501 | 0.557 | 0.524 | 0.545 | 0.975 | 0.884 | 0.924 | 0.977 | 0.973 | 0.494 | 0.521 | 0.532 | 0.426 | 0.413 | 0.367 | 0.366 | 0.393 | 0.385 | 0.343
5 | LCLC-103H | 0.712 | 0.555 | 0.683 | 0.626 | 0.658 | 1.13 | 1.16 | 1.06 | 1.07 | 1.08 | 0.47 | 0.421 | 0.352 | 0.265 | 0.32 | 0.477 | 0.504 | 0.285 | 0.315 | 0.329
6 | EMC-BAC-2 | 0.516 | 0.549 | 0.496 | 0.53 | 0.592 | 0.798 | 0.841 | 0.771 | 0.824 | 0.839 | 0.559 | 0.431 | 0.386 | 0.265 | 0.312 | 0.491 | 0.537 | 0.42 | 0.255 | 0.277
7 | NCI-H2228 | 0.357 | 0.519 | 0.494 | 0.497 | 0.42 | 1.11 | 0.681 | 0.755 | 0.708 | 0.542 | 0.743 | 0.891 | 0.277 | 0.188 | 0.13 | 0.377 | 0.32 | 0.213 | 0.0983 | 0.119
8 | HOP-62 | 0.894 | 0.758 | 0.64 | 0.86 | 0.785 | 1.05 | 0.979 | 0.856 | 0.926 | 0.899 | 0.367 | 0.185 | 0.0998 | 0.0286 | 0.0302 | 0.235 | 0.175 | 0.0617 | 0.0458 | 0.0811
9 | NCI-H727 | 0.269 | 0.367 | 0.317 | 0.367 | 0.43 | 0.218 | 0.388 | 0.26 | 0.319 | 0.364 | 0.681 | 0.584 | 0.566 | 0.476 | 0.535 |  |  |  |  | 
10 | COR-L 105 | 0.435 | 0.406 | 0.347 | 0.389 | 0.459 | 1.01 | 1.06 | 0.729 | 0.997 | 0.858 | 0.414 | 0.395 | 0.337 | 0.321 | 0.34 | 0.901 | 0.914 | 0.557 | 0.305 | 0.363
11 | NCI-H358 | 0.32 | 0.347 | 0.37 | 0.332 | 0.442 | 0.939 | 0.768 | 0.785 | 0.675 | 0.738 | 0.127 | 0.16 | 0.115 | 0.0864 | 0.0788 | 0.177 | 0.16 | 0.134 | 0.107 | 0.128
12 | SK-MES-1 | 0.386 | 0.322 | 0.329 | 0.357 | 0.392 | 1.12 | 1.07 | 0.985 | 0.981 | 1.06 | 0.294 | 0.207 | 0.225 | 0.128 | 0.203 | 0.968 | 0.87 | 0.415 | 0.227 | 0.247
13 | LC-2-ad | 0.506 | 0.687 | 0.647 | 0.522 | 0.567 | 0.874 | 0.905 | 0.849 | 0.899 | 0.839 | 0.443 | 0.427 | 0.432 | 0.233 | 0.196 | 0.288 | 0.27 | 0.257 | 0.218 | 0.221
14 | H3255 | 0.472 | 0.512 | 0.492 | 0.466 | 0.441 | 0.99 | 0.96 | 0.945 | 0.893 | 0.874 | 0.299 | 0.283 | 0.259 | 0.308 | 0.274 | 0.603 | 0.577 | 0.396 | 0.263 | 0.308
15 | A-427 | 0.855 | 0.786 | 0.701 | 0.799 | 0.641 | 1.19 | 1.19 | 1.09 | 1.17 | 1.11 | 0.381 | 0.339 | 0.321 | 0.29 | 0.282 | 0.611 | 0.466 | 0.333 | 0.247 | 0.273
16 | NCI-H661 | 0.43 | 0.433 | 0.401 | 0.565 | 0.345 | 0.531 | 0.561 | 0.519 | 0.719 | 0.497 | 0.421 | 0.427 | 0.34 | 0.292 | 0.366 | 0.773 | 0.77 | 0.494 | 0.426 | 0.44
